From PubChem BioAssay AID1963842 (Molecular Pharmacology Branch, DTP, NCI, 2024)

System: 677734-321-R-J1-PDC complex spheroid viability
Test: Anticancer human tumor 677734-321-R-J1-PDC patient-derived soft tissue sarcoma cell line growth inhibition [POLQ]
Details: for IC50: curve of first compound; for viability, T/C: stronger effect = lower value
Method: Multicellular complex tumor spheroid response to Polymerase (POL) inhibitors (novobiocin, ART-558, RP6685) in combination with a variety of drugs and investigational agents in selected tumor cell lines
The POL inhibitors (novobiocin, ART-558, and RP6685) were evaluated both individually and in combination with standard of care and investigational anticancer small molecules within a complex spheroid model of solid tumors. . Complex spheroids include a stromal component modeled by human endothelial cells (HUVEC) and fibroblasts modeled by human mesenchymal stem cells (MSCs). The concentration ranges selected for each drug and investigational agent were based upon clinically achievable concentrations if the clinical Cmax of the agent was known.
Compounds. The drugs and investigational agents: novobiocin (NSC847541), ART-558 (NSC835418), RP-6685 (NSC848927), peposertib (NSC802822), ceralasertib (NSC780249), elimusertib (NSC800525), camonsertib (NSC841442), AZD-1390 (NSC803789), olaparib (NSC753686), talazoparib (NSC767125), rucaparib (NSC756644), sotorasib (NSC818433), MRTX-1133 (NSC836407), SN-38 (NSC673596), topotecan (NSC609699), epotoside (NSC141540), doxorubicin (NSC123127), gemcitabine (NSC613327), 5-fluorouracil (NSC19893), paclitaxel (NSC125973), vemurafenib (NSC761431), MSA-2 (NSC828583), SN-011 (NSC837082), adavosertib (NSC754352), prexasertib (NSC758257), carboplatin (NSC241240) and oxaliplatin (NSC266046), were obtained from the National Cancer Institute (NCI) Developmental Therapeutics Program Chemical Repository (21). The FDA-approved anticancer drug set is available from the Developmental Therapeutics Program at https://dtp.cancer.gov/organization/dscb/obtaining/. […] The stock solutions were prepared in dimethyl sulfoxide (DMSO, Sigma-Aldrich, St. Louis, MO, cat. D2650), except for the platinum compounds which were prepared in saline (Quality Biological, Gaithersburg, MD, cat. 114-055-101), at 800-fold the tested concentration and stored at -70 degrees C prior to their use. All drugs and investigational agents were tested over a range starting from a high concentration at or near the clinical Cmax and decreasing in half-log increments. If the clinical Cmax for an agent had not been determined, the highest concentration tested was 10 microM, except for SN-38, which was tested at a high concentration of 1 microM.
Cell Culture. All cells were maintained in an incubator at 37 degrees C and 5% CO2 with 95% humidity. The PDC lines were cultured according to standard operating procedures established by the NCI PDMR (https://pdmr.cancer.gov). Table 3 of the manuscript, lists the cell lines along with the number of the three cell types plated to form the mct-spheroids and media for tumor cell growth. After thawing, all PDC lines, except 997537-175-T-J1-PDC and 415267-285-R-J2-PDC, were cultured in Matrigel-coated flasks prepared with a working solution of 1X Ham's F-12 nutrient mix, without supplementation (Thermo Fisher Scientific, cat. 11765054), 100 U/mL penicillin-streptomycin (Thermo Fisher Scientific, cat. 15140122), and 2.5% Matrigel (Corning Inc., Corning, NY, cat. 354248) for the first three passages. The two PDC lines 997537-175-T-J1-PDC and 415267-285-R-J2-PDC were cultured on uncoated flasks. The 857933-349-R-J2-PDC line was cultured in 6C/Colon 1B media containing advanced DMEM/F-12 (Thermo Fisher Scientific, cat. 12634028), 10 mM HEPES (Thermo Fisher Scientific, cat. 15630080), 1X GlutaMAX supplement (Thermo Fisher Scientific, cat. 35050061), 0.1 mg/mL primocin (InvivoGen, San Diego, CA, cat. ant-pm-2), 10% defined fetal bovine serum, heat inactivated (HyClone Laboratories Inc., Logan, UT, cat. SH30070.03HI), 50% L-WRN conditioned media (ATCC, cat. CRL-3276), 1.25 mM N-Acetyl-L-cysteine (Sigma-Aldrich, cat. A9165), 10 mM nicotinamide (Sigma-Aldrich, cat. N0636), 1X B-27 supplement (Thermo Fisher Scientific, cat. 17504044), 1X N-2 supplement (Thermo Fisher Scientific, cat. […]
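Further: spheroids exposed to compounds for one week.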
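Wherever viability, T/C is given: 100% = vehicle DMSO treated spheroids.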

For `CC(=O)O[C@H]1C(=O)[C@@]2(C)[C@H]([C@H](OC(=O)c3ccccc3)[C@]3(O)C[C@H](OC(=O)[C@H](O)[C@@H](NC(=O)c4ccccc4)c4ccccc4)C(C)=C1C3(C)C)[C@]1(OC(C)=O)CO[C@@H]1C[C@@H]2O` + COC1C(OC(N)=O)C(O)C(Oc2ccc3c(O)c(NC(=O)c4ccc(O)c(CC=C(C)C)c4)c(=O)oc3c2C)OC1(C)C, the IC50 (second compound 0.0316 µM) was < 9.49 nM, the IC50 (second compound 0.1 µM) was < 9.49 nM and the IC50 (second compound 0.316 µM) was < 9.49 nM. The IC50 (second compound 1 µM) was < 9.49 nM, the IC50 (second compound 3.16 µM) was < 9.49 nM and the IC50 (second compound 10 µM) was < 9.49 nM. The viability, T/C (second compound 0.0316 µM, first compound 0.00949 µM) was 44.6%, the viability, T/C (second compound 0.0316 µM, first compound 0.03 µM) was 22.1% and the viability, T/C (second compound 0.0316 µM, first compound 0.0949 µM) was 16.2%. It also gave a viability, T/C (second compound 0.0316 µM, first compound 0.3 µM) of 16.4%, a viability, T/C (second compound 0.0316 µM, first compound 0.949 µM) of 13.5% and a viability, T/C (second compound 0.0316 µM, first compound 3 µM) of 19.1%. The viability, T/C (second compound 0.1 µM, first compound 0.00949 µM) was 41.2%, the viability, T/C (second compound 0.1 µM, first compound 0.03 µM) was 23.5% and the viability, T/C (second compound 0.1 µM, first compound 0.0949 µM) was 20.2%. For the same compound, the viability, T/C (second compound 0.1 µM, first compound 0.3 µM) was 14.9%, the viability, T/C (second compound 0.1 µM, first compound 0.949 µM) was 13.6% and the viability, T/C (second compound 0.1 µM, first compound 3 µM) was 17.5%. For the same compound, the viability, T/C (second compound 0.316 µM, first compound 0.00949 µM) was 36.8%, the viability, T/C (second compound 0.316 µM, first compound 0.03 µM) was 21.3% and the viability, T/C (second compound 0.316 µM, first compound 0.0949 µM) was 16.8%. For the same compound, the viability, T/C (second compound 0.316 µM, first compound 0.3 µM) was 11.9%, the viability, T/C (second compound 0.316 µM, first compound 0.949 µM) was 13.9% and the viability, T/C (second compound 0.316 µM, first compound 3 µM) was 16.9%. It also gave a viability, T/C (second compound 1 µM, first compound 0.00949 µM) of 37.8%, a viability, T/C (second compound 1 µM, first compound 0.03 µM) of 22.4% and a viability, T/C (second compound 1 µM, first compound 0.0949 µM) of 17.8%. The viability, T/C (second compound 1 µM, first compound 0.3 µM) was 15.2%, the viability, T/C (second compound 1 µM, first compound 0.949 µM) was 14% and the viability, T/C (second compound 1 µM, first compound 3 µM) was 18%. For the same compound, the viability, T/C (second compound 3.16 µM, first compound 0.00949 µM) was 37.8%, the viability, T/C (second compound 3.16 µM, first compound 0.03 µM) was 21.1% and the viability, T/C (second compound 3.16 µM, first compound 0.0949 µM) was 16.2%. It also gave a viability, T/C (second compound 3.16 µM, first compound 0.3 µM) of 15.4%, a viability, T/C (second compound 3.16 µM, first compound 0.949 µM) of 13.5% and a viability, T/C (second compound 3.16 µM, first compound 3 µM) of 17.7%. For the same compound, the viability, T/C (second compound 10 µM, first compound 0.00949 µM) was 45.5%, the viability, T/C (second compound 10 µM, first compound 0.03 µM) was 23.1% and the viability, T/C (second compound 10 µM, first compound 0.0949 µM) was 16.2%. The viability, T/C (second compound 10 µM, first compound 0.3 µM) was 13.2%, the viability, T/C (second compound 10 µM, first compound 0.949 µM) was 14.3% and the viability, T/C (second compound 10 µM, first compound 3 µM) was 16.5%.
